Structures can show the parent of a compound that is named as a salt.
Tested on: methacholine (MCh)-induced bronchoconstriction
Test: Rat Einthoven assay: bronchoprotection against methacholine (MCh)-induced bronchoconstriction
Type: in vivo
Settings: 100 μg by inhalation, bronchoprotective effect present
Procedure: This assay measures the ability of a test compound to provide bronchoprotection against methacholine (MCh)-induced bronchoconstriction in a rat. Male Sprague-Dawley rats (Harlan, Indianapolis, Ind.), weighing between 200 g and 350 g, were used for all studies. Test compound or vehicle (sterile deionized water) were dosed by inhalation (1H) over a 10 min period in a pie shaped inhalation chamber (R+S Molds, San Carlos, Calif.) using 5 mL of dosing solution. […] Rats were dosed with 100 μg of test compound unless otherwise indicated. At predetermined time points, rats were anesthetized with all intraperitoneal (IP) injection of 120 mg/kg inactin (thiobutabarbital). A supplemental dose (40 mg/kg, IP) was administered if the animal responded to physical stimuli (e.g. toe pinch). The surgical site was shaved and a 1-2 cm midline incision of the ventral aspect of the neck was made. The jugular vein was isolated and cannulated with a saline-filled polyethylene catheter (PE-50) to allow IV infusion of MCh. Trachea was dissected free and cannulated with a 14G needle (#NE-014, Small Parts, Miami Lakes, Fla.). After placement of the tracheal cannula, each rat was ventilated using a respirator (Model 683, Harvard Apparatus, Inc., Mass.) set at a stroke volume of 1 mL/100 g body weight (but not exceeding 2.5 mL volume) and a rate of 90 strokes per minute. A T-connector was placed along the respirator expiratory tubing to allow for measurement of changes in ventilation pressure (VP) using a Biopac transducer that was connected to a Biopac […]) pre-amplifier. Body temperature was maintained at 37° C. using a heating pad. Changes in VP were recorded using the Acknowledge Data Collection Software (Santa Barbara, Calif.). Baseline values were collected for at least 2.5 min. Rats were then challenged with non-cumulative intravenous (IV) infusions of 40 and 80 μg/kg MCh. MCh was infused intravenously for 2.5 minutes from a syringe pump (sp210iw, World Precision Instruments, Inc., Sarasota, Fla.) at a rate of 2 mL/kg/min, with a 2 minute interval between the two doses of MCh. Changes in ventilation pressure (cm H2O) in treated animals are expressed as % inhibition of MCh response relative to control animals. Other bronchoconstrictors, such as histamine and acetylcholine, can be used in place of MCh in this assay. Additonally, guinea pigs can be used instead of rats. […] Inhibition greater than or equal to 30 percent at 24 h is indicative of a long duration of action.

Structure (SMILES): CC(Cc1cccc(CC(=O)NCCCCN(C)C(=O)CCN2CCC(OC(=O)Nc3ccccc3-c3ccccc3)CC2)c1)NC[C@H](O)c1ccc(O)c2[nH]c(=O)ccc12 (stereo in doubt) [Compound I-23, Biphenyl-2-ylcarbamic acid 1-[2-({4-[2-(3-{(R)-2-[(R)-2-hydroxy-2-(8-hydroxy-2-oxo-1,2-dihydroquinolin-5-yl)ethylamino]propyl}phenyl)acetylamino]butyl}methylcarbamoyl)ethyl]piperidin-4-yl ester ditrifluoroacetic acid salt]
- Broncho. at 24 h: Yes (Bronchoprotective effect present at 24 h, e.g., ≧30% inhibition of the MCh response at 24 h in the rat Einthoven assay (100 μg))

Structure (SMILES): Cc1cc(CNC[C@H](O)c2ccc(O)c3[nH]c(=O)ccc23)ccc1NC(=O)CCCN(C)C(=O)CCN1CCC(OC(=O)Nc2ccccc2-c2ccccc2)CC1 [Compound I-2, Biphenyl-2-ylcarbamic acid 1-(2-{[3-(4-{[(R)-2-hydroxy-2-(8-hydroxy-2-oxo-1,2-dihydroquinolin-5-yl)ethylamino]methyl}-2-methylphenylcarbamoyl)propyl]methylcarbamoyl}ethyl)piperidin-4-yl ester ditrifluoroacetic acid salt]
- Broncho. at 24 h: No

Structure (SMILES): CN(CCCC(=O)Nc1cccc(CCNC[C@H](O)c2ccc(O)c3[nH]c(=O)ccc23)c1)C(=O)CCN1CCC(OC(=O)Nc2ccccc2-c2ccccc2)CC1 [Compound I-7, Biphenyl-2-ylcarbamic Acid 1-(2-{[3-(3{2-[(R)-2-Hydroxy-2-(8-hydroxy-2-oxy-1,2-dihydroquinolin-5-yl)ethylamino]ethyl}phenylcarbamoyl)-propyl]methylcarbamoyl}ethyl)piperidin-4-yl Ester Ditrifluoroacetic Acid Salt]
- Broncho. at 24 h: Yes (Bronchoprotective effect present at 24 h, e.g., ≧30% inhibition of the MCh response at 24 h in the rat Einthoven assay (100 μg))

Structure (SMILES): C[C@H](Cc1cccc(CC(=O)NCCCN(C)C(=O)CCN2CCC(OC(=O)Nc3ccccc3-c3ccccc3)CC2)c1)NC[C@H](O)c1ccc(O)c2[nH]c(=O)ccc12 [Compound I-12, Biphenyl-2-ylcarbamic acid 1-[2-({3-[2-(3-{(R)-2-[(R)-2-hydroxy-2-(8-hydroxy-2-oxo-1,2-dihydroquinolin-5-yl)ethylamino]propyl}phenyl)acetylamino]propyl}methylcarbamoyl)ethyl]piperidin-4-yl ester ditrifluoroacetic acid salt]
- Broncho. at 24 h: No

Structure (SMILES): C[C@@H](Cc1cccc(CC(=O)NCCCN(C)C(=O)CCN2CCC(OC(=O)Nc3ccccc3-c3ccccc3)CC2)c1)NC[C@H](O)c1ccc(O)c2[nH]c(=O)ccc12 [Compound I-13, Biphenyl-2-ylcarbamic Acid 1[2-({3-[2-(3-{(S)-2-[(R)-2-Hydroxy-2-(8-hydroxy-2-oxo-1,2-dihydroquinolin-5-yl)ethylamino]propyl}phenyl)acetylaminol]-propyl}methylcarbamoyl)ethyl]piperidin-4-yl Ester Ditrifluoroacetic Acid Salt]
- Broncho. at 24 h: Yes (Bronchoprotective effect present at 24 h, e.g., ≧30% inhibition of the MCh response at 24 h in the rat Einthoven assay (100 μg))

Structure (SMILES): CN(C(=O)CCN1CCC(OC(=O)Nc2ccccc2-c2ccccc2)CC1)c1cccc(C(=O)Nc2ccc(CNC[C@H](O)c3ccc(O)c4[nH]c(=O)ccc34)cc2)c1 [Compound I-25]
- inhibition in vivo at 0.1 mg (inhaled or nasal, 24 h, read-out: Broncho. at 24 h): > 30%

Structure (SMILES): Cc1ccc(C(=O)Nc2ccc(CC(C)NC[C@H](O)c3ccc(O)c4[nH]c(=O)ccc34)cc2)cc1N(C)C(=O)CCN1CCC(OC(=O)Nc2ccccc2-c2ccccc2)CC1 (stereo partly drawn) [Compound I-41, Biphenyl-2-ylcarbamic acid 1-(2-{[5-(4-{2-[(R)-2-hydroxy-2-(8-hydroxy-2-oxo-1,2-dihydroquinolin-5-yl)-ethylamino]propyl}phenylcarbamoyl)-2-methylphenyl]-methylcarbamoyl}ethyl)piperidin-4-yl ester]
- Broncho. at 24 h: No

Structure (SMILES): CN(C(=O)CCN1CCC(OC(=O)Nc2ccccc2-c2ccccc2)CC1)c1cccc(CC(=O)Nc2cccc(CCNC[C@H](O)c3ccc(O)c4[nH]c(=O)ccc34)c2)c1 [Compound I-62, ditrifluoroacetic acid salt]
- Broncho. at 24 h: Yes (Bronchoprotective effect present at 24 h, e.g., ≧30% inhibition of the MCh response at 24 h in the rat Einthoven assay (100 μg))

From patent publication US9572802B2 (Theravance Respiratory Company, LLC, priority 2009, dated 2017)
